Reference: ChEMBL document CHEMBL4373652, “Mechanism of thienopyridone and iminothienopyridinedione inhibition of protein phosphatases” (Medchemcomm, 2019)
Active and inactive are the calls of the source. The rule behind the calls is not given here.

Legend:
[1] = Induction of TCEP oxidation assessed as increase in rate of reduction of resazurin at 5 uM incubated up to 2 hrs by resazurin based assay
[2] = molecular target: T1, Receptor-type tyrosine-protein phosphatase C (Homo sapiens) (UniProt P08575); experiment: Inhibition of C-terminal 6His-tagged PTPRC (627-1228 residues) (unknown origin) expressed in Escherichia coli BL21 (DE3) at 2 uM using DiFMUP as substrate preincubated with enzyme and catalase for 2.5 hrs prior to substrate addition measured for 1 min by fluorescence based assay
T1 sequence (whole entry): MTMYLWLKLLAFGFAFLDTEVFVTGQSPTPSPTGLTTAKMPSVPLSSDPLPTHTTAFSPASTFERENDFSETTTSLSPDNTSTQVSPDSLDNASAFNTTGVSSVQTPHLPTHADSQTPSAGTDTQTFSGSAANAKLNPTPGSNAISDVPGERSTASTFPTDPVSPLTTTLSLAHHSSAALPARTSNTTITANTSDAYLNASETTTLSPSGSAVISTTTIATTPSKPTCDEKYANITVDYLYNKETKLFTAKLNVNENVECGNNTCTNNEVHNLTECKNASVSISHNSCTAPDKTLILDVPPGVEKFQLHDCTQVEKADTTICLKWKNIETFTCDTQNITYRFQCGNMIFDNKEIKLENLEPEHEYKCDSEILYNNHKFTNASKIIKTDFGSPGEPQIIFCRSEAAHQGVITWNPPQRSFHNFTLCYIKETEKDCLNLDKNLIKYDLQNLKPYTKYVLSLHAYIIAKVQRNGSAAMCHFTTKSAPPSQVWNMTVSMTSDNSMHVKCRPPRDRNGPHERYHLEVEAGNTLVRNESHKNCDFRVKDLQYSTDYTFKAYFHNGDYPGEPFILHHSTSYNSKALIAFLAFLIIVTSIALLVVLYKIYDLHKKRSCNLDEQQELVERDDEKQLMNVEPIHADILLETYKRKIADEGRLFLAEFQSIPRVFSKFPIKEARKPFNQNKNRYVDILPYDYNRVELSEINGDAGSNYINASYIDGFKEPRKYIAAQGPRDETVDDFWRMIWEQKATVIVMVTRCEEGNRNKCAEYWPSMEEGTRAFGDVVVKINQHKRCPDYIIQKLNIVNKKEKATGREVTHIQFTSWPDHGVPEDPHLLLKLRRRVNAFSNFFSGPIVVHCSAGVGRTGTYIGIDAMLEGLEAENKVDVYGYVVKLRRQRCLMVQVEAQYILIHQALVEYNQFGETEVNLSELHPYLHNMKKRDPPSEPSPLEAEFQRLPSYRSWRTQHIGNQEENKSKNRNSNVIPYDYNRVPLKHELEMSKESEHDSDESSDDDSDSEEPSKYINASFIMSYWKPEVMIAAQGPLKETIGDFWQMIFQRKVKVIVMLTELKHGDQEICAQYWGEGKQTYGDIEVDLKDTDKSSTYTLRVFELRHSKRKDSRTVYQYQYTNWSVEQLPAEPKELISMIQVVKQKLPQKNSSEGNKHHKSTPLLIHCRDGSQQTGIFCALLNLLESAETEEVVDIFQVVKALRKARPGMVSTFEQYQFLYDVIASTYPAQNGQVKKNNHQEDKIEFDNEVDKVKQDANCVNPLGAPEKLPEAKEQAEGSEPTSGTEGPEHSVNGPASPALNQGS

[3] = Induction of TCEP oxidation at 1 mM in 80% d6-acetone and 20% d6-DMSO incubated for 2 hrs by 15N-1H NMR spectroscopy relative to control
[4] = molecular target: T2, Receptor-type tyrosine-protein phosphatase O (Homo sapiens) (UniProt Q16827); experiment: (§1) Inhibition of recombinant human N-terminal His-tagged PTPRO expressed in bacterial expression system assessed as enzyme residual activity at 2 uM using DiFMUP as substrate preincubated with enzyme for 2.5 hrs prior to substrate addition measured for 1 min by fluorescence based assay
T2 sequence (whole entry): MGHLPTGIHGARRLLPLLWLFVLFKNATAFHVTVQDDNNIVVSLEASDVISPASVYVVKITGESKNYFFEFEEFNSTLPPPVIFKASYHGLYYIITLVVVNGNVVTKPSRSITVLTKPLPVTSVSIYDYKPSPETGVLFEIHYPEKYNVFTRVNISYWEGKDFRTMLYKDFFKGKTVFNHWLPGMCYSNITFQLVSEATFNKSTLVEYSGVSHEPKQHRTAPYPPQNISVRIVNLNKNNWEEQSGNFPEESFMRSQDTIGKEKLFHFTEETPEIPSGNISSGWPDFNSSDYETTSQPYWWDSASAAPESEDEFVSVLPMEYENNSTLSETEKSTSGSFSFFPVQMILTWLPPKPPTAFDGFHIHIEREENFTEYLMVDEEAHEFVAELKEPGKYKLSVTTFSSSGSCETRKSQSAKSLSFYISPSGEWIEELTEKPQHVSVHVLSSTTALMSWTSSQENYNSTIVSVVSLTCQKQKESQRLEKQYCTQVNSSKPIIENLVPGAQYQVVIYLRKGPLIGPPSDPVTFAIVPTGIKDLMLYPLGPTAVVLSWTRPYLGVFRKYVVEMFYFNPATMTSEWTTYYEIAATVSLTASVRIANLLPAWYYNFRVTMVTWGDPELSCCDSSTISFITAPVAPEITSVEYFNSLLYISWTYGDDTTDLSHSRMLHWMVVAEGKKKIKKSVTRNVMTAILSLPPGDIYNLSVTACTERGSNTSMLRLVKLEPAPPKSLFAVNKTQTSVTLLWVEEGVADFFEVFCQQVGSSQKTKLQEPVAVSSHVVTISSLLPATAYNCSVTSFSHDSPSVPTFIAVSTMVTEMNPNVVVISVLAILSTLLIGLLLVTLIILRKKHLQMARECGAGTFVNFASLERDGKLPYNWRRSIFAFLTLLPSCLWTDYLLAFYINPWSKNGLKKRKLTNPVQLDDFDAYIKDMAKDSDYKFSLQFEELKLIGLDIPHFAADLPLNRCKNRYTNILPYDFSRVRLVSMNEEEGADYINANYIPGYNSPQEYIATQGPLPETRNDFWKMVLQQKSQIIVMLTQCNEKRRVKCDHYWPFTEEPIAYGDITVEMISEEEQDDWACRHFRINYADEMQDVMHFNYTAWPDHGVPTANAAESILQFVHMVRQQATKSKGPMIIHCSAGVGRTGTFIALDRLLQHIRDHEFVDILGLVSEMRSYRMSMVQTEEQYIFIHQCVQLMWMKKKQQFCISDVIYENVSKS

Homo sapiens = species on record: Homo sapiens; experiment: Inhibition of recombinant human C-terminal 6His-tagged PTPN22 G126V/V147G double mutant expressed in bacterial expression system assessed as rate of product DiFMU formed at 2 uM using DiFMUP as substrate preincubated with enzyme for 2.5 hrs followed by substrate addition measured for 1 min by fluorescence based assay (reference value: 11.9 nM/sec)
[5] = molecular target: T2, Receptor-type tyrosine-protein phosphatase O (Homo sapiens); experiment: as §1, with “rate of product DiFMU formed” for “enzyme residual activity”, “assay (reference value: 209.7 nM/sec)” for “assay”
[6] = molecular target: T3, Tyrosine-protein phosphatase non-receptor type 1 (Homo sapiens) (UniProt P18031); experiment: Inhibition of human PTP1B at 25 nM using DiFMUP as substrate preincubated with enzyme prior to substrate addition by fluorescence based assay; conditions: TDE = time-dependent effect
T3 sequence (whole entry): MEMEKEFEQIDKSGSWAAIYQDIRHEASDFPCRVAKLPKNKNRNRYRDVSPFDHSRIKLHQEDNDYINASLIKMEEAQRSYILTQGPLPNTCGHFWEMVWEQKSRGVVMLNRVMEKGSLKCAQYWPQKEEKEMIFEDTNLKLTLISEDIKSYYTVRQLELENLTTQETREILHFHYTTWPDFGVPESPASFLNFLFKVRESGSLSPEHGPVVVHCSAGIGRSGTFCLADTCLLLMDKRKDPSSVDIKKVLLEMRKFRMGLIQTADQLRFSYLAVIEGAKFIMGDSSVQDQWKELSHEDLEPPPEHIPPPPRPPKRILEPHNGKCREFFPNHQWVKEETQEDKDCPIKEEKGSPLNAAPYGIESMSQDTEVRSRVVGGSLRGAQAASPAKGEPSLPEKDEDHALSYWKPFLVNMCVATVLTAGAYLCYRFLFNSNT

Mus musculus = species on record: Mus musculus; experiment: Inhibition of mouse His-tagged PRL3 C49A mutant at 0.6 uM using DiFMUP as substrate preincubated with enzyme for 10 mins prior to substrate addition by fluorescence based assay relative to control
[7] = Induction of TCEP oxidation assessed as increase in rate of reduction of resazurin at 5 uM after 3 to 5 secs by resazurin based assay
[8] = molecular target: Protein tyrosine phosphatase type IVA 3 (Mus musculus) (UniProt Q9D658); experiment: Inhibition of mouse His-tagged wild type PRL3 at 0.6 uM using DiFMUP as substrate preincubated with enzyme for 10 mins prior to substrate addition by fluorescence based assay relative to control
[9] = Induction of glutathione oxidation at 1 mM incubated for 2 hrs in 80% d6-DMSO and 20% D2O by 15N-1H NMR spectroscopy relative to control

Sequence of Protein tyrosine phosphatase type IVA 3 (Mus musculus) (Q9D658 whole entry): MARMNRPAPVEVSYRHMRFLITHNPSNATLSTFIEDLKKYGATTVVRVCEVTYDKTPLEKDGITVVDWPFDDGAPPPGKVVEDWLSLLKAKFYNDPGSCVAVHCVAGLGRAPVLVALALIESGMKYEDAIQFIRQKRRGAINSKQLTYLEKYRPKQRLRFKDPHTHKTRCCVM

Row | inhibition (Mus musculus) [%] | Activity [7] | inhibition [8] [%] | Activity [9] [%] | Structure (SMILES) | Activity [1] | inhibition [2] | fold change (FC) [3] | Activity [4] [%] | Activity (Homo sapiens) [nM/s] | Activity [5] [nM/s] | inhibition [6]
1 | – | – | – | – | N=C1C(=O)NC(=O)c2cc(-c3ccccc3)sc21 | Active | inactive | 20 | 7.3 | 0.3 | 15.3 | Tde
2 | 10 | Active | 55 | 70 | Nc1c[nH]c(=O)c2cc(-c3ccccc3)sc12 | Active | – | 5 | – | – | – | Tde
